Columns and labels:
Assay in all cases: radiometric filter-binding kinase assay, Kinase HotSpot
Details in all cases: compound 0.5 µM; ATP 10 µM
AKT2 (human) = AKT2 (human) (UniProt P31751)
BLK (human) = BLK (human) (UniProt P51451)
BMX (human) = BMX (human) (UniProt P51813)
CDK4 CCND3 (human) = CDK4 CCND3 (human) (UniProt P30281+P11802)
CDK5 CDK5R1 p25 (human) = CDK5 CDK5R1 p25 (human) (UniProt Q00535+Q15078)
CDK7 CCNH MNAT1 (human) = CDK7 CCNH MNAT1 (human) (UniProt P50613+P51948+P51946)
CSNK1D (human) = CSNK1D (human) (UniProt P48730)
DCLK2 (human) = DCLK2 (human) (UniProt Q8N568)
DDR2 (human) = DDR2 (human) (UniProt Q16832)
DMPK (human) = DMPK (human) (UniProt Q09013)
EPHA7 (human) = EPHA7 (human) (UniProt Q15375)
EPHA8 (human) = EPHA8 (human) (UniProt P29322)
FGFR1 (human) = FGFR1 (human) (UniProt P11362)
FGFR3 (human) = FGFR3 (human) (UniProt P22607)
GRK4 (human) = GRK4 (human) (UniProt P32298)
GSG2 (human) = GSG2 (human) (UniProt Q8TF76)
HCK (human) = HCK (human) (UniProt P08631)
HIPK2 (human) = HIPK2 (human) (UniProt Q9H2X6)
IKBKE (human) = IKBKE (human) (UniProt Q14164)
INSRR (human) = INSRR (human) (UniProt P14616)
MAPK12 (human) = MAPK12 (human) (UniProt P53778)
MAPK13 (human) = MAPK13 (human) (UniProt O15264)
MARK4 (human) = MARK4 (human) (UniProt Q96L34)
MST4 (human) = MST4 (human) (UniProt Q9P289)
NEK7 (human) = NEK7 (human) (UniProt Q8TDX7)
PAK4 (human) = PAK4 (human) (UniProt O96013)
PKN2 (human) = PKN2 (human) (UniProt Q16513)
PLK1 (human) = PLK1 (human) (UniProt P53350)
PRKCB1 (human) = PRKCB1 (human) (UniProt P05771)
PRKCZ (human) = PRKCZ (human) (UniProt Q05513)
RPS6KA5 KD2 (human) = RPS6KA5 KD2 (human) (UniProt O75582)
RPS6KB2 (human) = RPS6KB2 (human) (UniProt Q9UBS0)
SGK2 (human) = SGK2 (human) (UniProt Q9HBY8)
SRC (human) = SRC (human) (UniProt P12931)
STK11 (human) = STK11 (human) (UniProt Q15831)
STK17A (human) = STK17A (human) (UniProt Q9UEE5)
TAOK1 (human) = TAOK1 (human) (UniProt Q7L7X3)
TGFBR2 (human) = TGFBR2 (human) (UniProt P37173)
WEE1 (human) = WEE1 (human) (UniProt P30291)
WNK2 (human) = WNK2 (human) (UniProt Q9Y3S1)
YES1 (human) = YES1 (human) (UniProt P07947)
ZAP70 (human) = ZAP70 (human) (UniProt P43403)

Sequence of RPS6KB2 (human) (Q9UBS0 whole entry, looked up): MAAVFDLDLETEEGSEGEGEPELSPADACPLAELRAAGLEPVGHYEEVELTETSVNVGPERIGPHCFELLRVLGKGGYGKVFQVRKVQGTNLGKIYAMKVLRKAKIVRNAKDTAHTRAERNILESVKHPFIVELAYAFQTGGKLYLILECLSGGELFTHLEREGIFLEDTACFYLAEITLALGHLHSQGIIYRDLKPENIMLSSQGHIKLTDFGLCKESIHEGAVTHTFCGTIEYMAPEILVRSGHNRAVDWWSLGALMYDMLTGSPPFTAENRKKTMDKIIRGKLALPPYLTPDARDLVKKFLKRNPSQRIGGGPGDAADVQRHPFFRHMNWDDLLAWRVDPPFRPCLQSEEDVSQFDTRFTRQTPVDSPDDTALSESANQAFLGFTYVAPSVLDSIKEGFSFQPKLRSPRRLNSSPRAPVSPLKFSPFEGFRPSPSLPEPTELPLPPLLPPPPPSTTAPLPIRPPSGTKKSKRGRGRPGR
Sequence of IKBKE (human) (Q14164 whole entry, looked up): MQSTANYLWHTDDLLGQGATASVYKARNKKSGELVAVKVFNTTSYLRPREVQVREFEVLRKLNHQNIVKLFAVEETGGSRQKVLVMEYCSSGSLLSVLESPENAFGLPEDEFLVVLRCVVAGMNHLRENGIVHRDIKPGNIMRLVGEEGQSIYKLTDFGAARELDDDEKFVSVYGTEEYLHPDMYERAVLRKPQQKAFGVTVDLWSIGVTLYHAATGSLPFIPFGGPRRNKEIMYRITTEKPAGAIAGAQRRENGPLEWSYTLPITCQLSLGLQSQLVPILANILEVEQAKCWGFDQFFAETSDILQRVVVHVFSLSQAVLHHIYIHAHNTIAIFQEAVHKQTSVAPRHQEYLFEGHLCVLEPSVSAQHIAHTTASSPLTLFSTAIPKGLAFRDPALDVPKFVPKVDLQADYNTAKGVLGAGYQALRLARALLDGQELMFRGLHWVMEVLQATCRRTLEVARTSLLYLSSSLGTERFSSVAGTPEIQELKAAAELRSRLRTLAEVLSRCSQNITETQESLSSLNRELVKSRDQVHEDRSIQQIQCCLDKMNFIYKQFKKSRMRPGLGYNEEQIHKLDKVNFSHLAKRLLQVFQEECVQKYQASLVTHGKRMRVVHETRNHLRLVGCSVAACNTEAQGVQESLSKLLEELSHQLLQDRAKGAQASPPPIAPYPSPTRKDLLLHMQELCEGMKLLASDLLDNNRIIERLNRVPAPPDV
Sequence of MARK4 (human) (Q96L34 whole entry, looked up): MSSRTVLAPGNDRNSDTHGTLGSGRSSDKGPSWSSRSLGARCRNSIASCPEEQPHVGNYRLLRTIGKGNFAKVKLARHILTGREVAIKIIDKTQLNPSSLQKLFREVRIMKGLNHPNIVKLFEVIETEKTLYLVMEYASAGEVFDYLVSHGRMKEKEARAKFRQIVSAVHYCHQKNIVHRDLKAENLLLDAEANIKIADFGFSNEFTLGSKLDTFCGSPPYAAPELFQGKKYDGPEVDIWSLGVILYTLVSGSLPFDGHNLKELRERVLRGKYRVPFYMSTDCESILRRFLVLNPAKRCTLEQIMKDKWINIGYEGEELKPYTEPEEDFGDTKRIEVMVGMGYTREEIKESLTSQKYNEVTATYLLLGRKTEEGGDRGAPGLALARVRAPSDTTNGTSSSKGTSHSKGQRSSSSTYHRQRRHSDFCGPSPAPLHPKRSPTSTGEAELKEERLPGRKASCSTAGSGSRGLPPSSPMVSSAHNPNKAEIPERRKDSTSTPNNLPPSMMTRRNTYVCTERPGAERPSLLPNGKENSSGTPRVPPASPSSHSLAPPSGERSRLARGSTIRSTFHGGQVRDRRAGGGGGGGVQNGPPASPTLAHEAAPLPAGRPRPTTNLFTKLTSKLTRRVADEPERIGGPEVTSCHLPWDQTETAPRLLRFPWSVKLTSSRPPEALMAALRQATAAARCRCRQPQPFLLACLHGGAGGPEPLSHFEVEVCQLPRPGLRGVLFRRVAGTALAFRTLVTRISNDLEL
Sequence of CDK5 CDK5R1 p25 (human) (Q00535 whole entry, looked up): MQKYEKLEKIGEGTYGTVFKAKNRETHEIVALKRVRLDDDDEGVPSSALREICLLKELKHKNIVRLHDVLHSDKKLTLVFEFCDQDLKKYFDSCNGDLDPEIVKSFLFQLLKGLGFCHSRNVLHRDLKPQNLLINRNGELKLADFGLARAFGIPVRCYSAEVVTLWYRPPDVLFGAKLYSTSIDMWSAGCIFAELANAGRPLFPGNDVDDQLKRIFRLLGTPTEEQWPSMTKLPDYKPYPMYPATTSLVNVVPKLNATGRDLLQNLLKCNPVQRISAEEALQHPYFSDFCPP
Sequence of CDK5 CDK5R1 p25 (human) (Q15078 whole entry, looked up): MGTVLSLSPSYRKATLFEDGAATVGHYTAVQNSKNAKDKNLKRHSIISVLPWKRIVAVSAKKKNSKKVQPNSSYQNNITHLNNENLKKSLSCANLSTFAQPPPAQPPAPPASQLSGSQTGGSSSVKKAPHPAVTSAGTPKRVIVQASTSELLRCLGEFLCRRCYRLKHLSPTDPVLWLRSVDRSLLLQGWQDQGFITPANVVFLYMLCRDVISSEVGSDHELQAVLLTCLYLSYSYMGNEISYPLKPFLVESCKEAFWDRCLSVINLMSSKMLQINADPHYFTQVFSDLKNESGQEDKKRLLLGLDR
Sequence of FGFR3 (human) (P22607 whole entry, looked up): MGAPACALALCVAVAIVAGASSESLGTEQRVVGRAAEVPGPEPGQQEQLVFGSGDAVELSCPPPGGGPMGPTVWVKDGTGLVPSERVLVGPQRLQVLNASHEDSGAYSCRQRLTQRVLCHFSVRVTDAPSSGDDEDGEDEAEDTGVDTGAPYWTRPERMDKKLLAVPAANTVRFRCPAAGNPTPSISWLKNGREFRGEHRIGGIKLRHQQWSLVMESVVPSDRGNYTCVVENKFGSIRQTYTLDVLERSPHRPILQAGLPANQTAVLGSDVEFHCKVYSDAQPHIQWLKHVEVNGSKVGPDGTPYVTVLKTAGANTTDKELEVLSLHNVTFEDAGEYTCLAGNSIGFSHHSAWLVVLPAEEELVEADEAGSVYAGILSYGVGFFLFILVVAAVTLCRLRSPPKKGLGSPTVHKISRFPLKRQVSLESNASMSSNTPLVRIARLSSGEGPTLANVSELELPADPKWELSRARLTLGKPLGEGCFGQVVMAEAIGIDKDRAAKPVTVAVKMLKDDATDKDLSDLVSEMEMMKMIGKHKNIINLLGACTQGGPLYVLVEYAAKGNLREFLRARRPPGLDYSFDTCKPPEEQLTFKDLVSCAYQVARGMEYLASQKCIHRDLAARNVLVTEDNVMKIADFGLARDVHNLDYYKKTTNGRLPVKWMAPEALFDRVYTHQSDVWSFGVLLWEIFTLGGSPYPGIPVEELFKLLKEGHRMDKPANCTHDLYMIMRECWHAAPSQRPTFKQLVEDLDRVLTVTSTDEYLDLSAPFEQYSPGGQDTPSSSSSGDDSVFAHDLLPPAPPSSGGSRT
Sequence of CDK7 CCNH MNAT1 (human) (P50613 whole entry, looked up): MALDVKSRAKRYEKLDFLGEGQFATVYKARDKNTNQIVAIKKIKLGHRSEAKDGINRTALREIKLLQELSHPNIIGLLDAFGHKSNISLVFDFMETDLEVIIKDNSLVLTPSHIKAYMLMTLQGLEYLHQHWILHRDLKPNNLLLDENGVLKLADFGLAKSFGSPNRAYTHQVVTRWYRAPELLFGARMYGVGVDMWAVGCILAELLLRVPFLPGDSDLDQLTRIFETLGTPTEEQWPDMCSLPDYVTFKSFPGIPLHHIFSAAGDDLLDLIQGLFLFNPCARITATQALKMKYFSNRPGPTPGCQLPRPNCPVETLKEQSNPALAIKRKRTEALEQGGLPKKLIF
Sequence of CDK7 CCNH MNAT1 (human) (P51946 whole entry, looked up): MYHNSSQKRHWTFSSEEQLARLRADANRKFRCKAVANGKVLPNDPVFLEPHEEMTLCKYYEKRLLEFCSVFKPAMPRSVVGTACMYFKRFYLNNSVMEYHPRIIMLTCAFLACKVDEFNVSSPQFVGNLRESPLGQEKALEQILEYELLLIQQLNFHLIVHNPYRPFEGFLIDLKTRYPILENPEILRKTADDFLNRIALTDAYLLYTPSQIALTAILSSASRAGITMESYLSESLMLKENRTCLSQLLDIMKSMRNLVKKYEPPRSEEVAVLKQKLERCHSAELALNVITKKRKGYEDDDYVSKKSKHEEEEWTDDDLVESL
Sequence of CDK7 CCNH MNAT1 (human) (P51948 whole entry, looked up): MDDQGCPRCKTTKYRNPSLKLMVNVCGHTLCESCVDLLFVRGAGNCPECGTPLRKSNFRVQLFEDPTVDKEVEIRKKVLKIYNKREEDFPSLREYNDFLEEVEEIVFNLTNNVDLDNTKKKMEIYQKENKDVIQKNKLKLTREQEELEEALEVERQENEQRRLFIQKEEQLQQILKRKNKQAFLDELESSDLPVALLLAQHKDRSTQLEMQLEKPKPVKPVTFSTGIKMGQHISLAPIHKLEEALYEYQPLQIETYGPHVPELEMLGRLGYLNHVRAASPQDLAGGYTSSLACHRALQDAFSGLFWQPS
Sequence of AKT2 (human) (P31751 whole entry, looked up): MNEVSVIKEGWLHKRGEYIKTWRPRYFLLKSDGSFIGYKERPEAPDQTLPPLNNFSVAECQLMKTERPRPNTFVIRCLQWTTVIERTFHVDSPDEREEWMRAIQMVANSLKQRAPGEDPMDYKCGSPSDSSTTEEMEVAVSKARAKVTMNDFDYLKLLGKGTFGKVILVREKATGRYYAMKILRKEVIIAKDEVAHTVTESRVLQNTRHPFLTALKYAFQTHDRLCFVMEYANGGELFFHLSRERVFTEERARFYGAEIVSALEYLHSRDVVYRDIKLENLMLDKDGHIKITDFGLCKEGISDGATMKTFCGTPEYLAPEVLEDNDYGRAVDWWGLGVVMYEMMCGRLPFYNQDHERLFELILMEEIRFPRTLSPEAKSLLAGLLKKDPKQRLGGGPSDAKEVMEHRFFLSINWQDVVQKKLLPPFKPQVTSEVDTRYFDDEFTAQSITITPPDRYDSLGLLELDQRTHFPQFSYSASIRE

SMILES: CCN(CC)C(=O)c1ccc(Nc2nc(OCC3CCCCC3)c3nc[nH]c3n2)cc1
- residual activity (AKT2 (human)): 92%
- residual activity (BLK (human)): 60.9%
- residual activity (BMX (human)): 42.9%
- residual activity (CDK4 CCND3 (human)): 59.2%
- residual activity (CDK5 CDK5R1 p25 (human)): 77.2%
- residual activity (CDK7 CCNH MNAT1 (human)): 87.6%
- residual activity (CSNK1D (human)): 102%
- residual activity (DCLK2 (human)): 97.3%
- residual activity (DDR2 (human)): 109%
- residual activity (DMPK (human)): 105%
- residual activity (EPHA7 (human)): 72.8%
- residual activity (EPHA8 (human)): 92.1%
- residual activity (FGFR1 (human)): 72.8%
- residual activity (FGFR3 (human)): 66.9%
- residual activity (GRK4 (human)): 93%
- residual activity (GSG2 (human)): 94.1%
- residual activity (HCK (human)): 63.1%
- residual activity (HIPK2 (human)): 92.4%
- residual activity (IKBKE (human)): 77.9%
- residual activity (INSRR (human)): 80.8%
- residual activity (MAPK12 (human)): 99.4%
- residual activity (MAPK13 (human)): 95.3%
- residual activity (MARK4 (human)): 93.8%
- residual activity (MST4 (human)): 84.9%
- residual activity (NEK7 (human)): 103%
- residual activity (PAK4 (human)): 51.5%
- residual activity (PKN2 (human)): 91.8%
- residual activity (PLK1 (human)): 91.4%
- residual activity (PRKCB1 (human)): 103%
- residual activity (PRKCZ (human)): 95.8%
- residual activity (RPS6KA5 KD2 (human)): 89.8%
- residual activity (RPS6KB2 (human)): 102%
- residual activity (SGK2 (human)): 94.4%
- residual activity (SRC (human)): 72.8%
- residual activity (STK11 (human)): 85.2%
- residual activity (STK17A (human)): 59.8%
- residual activity (TAOK1 (human)): 57.9%
- residual activity (TGFBR2 (human)): 75.4%
- residual activity (WEE1 (human)): 110%
- residual activity (WNK2 (human)): 88.6%
- residual activity (YES1 (human)): 15.4%
- residual activity (ZAP70 (human)): 94%

SMILES: CCC(=O)Nc1ccc2ncnc(Nc3cccc(Br)c3)c2c1
- residual activity (AKT2 (human)): 102%
- residual activity (BLK (human)): 90.7%
- residual activity (BMX (human)): 98.7%
- residual activity (CDK4 CCND3 (human)): 90.4%
- residual activity (CDK5 CDK5R1 p25 (human)): 78.4%
- residual activity (CDK7 CCNH MNAT1 (human)): 102%
- residual activity (CSNK1D (human)): 96.9%
- residual activity (DCLK2 (human)): 89%
- residual activity (DDR2 (human)): 109%
- residual activity (DMPK (human)): 92%
- residual activity (EPHA7 (human)): 102%
- residual activity (EPHA8 (human)): 96.6%
- residual activity (FGFR1 (human)): 108%
- residual activity (FGFR3 (human)): 93.2%
- residual activity (GRK4 (human)): 96.2%
- residual activity (GSG2 (human)): 95.2%
- residual activity (HCK (human)): 93%
- residual activity (HIPK2 (human)): 97%
- residual activity (IKBKE (human)): 94.9%
- residual activity (INSRR (human)): 98.4%
- residual activity (MAPK12 (human)): 103%
- residual activity (MAPK13 (human)): 106%
- residual activity (MARK4 (human)): 80.2%
- residual activity (MST4 (human)): 97.6%
- residual activity (NEK7 (human)): 92.7%
- residual activity (PAK4 (human)): 105%
- residual activity (PKN2 (human)): 106%
- residual activity (PLK1 (human)): 95.3%
- residual activity (PRKCB1 (human)): 99.2%
- residual activity (PRKCZ (human)): 95.7%
- residual activity (RPS6KA5 KD2 (human)): 90%
- residual activity (RPS6KB2 (human)): 94.9%
- residual activity (SGK2 (human)): 96.2%
- residual activity (SRC (human)): 93.6%
- residual activity (STK11 (human)): 103%
- residual activity (STK17A (human)): 88.7%
- residual activity (TAOK1 (human)): 79.1%
- residual activity (TGFBR2 (human)): 116%
- residual activity (WEE1 (human)): 80.2%
- residual activity (WNK2 (human)): 107%
- residual activity (YES1 (human)): 87%
- residual activity (ZAP70 (human)): 113%

SMILES: Nc1ccc2ncnc(NCCc3ccc(Oc4ccccc4)cc3)c2c1
- residual activity (AKT2 (human)): 101%
- residual activity (BLK (human)): 97.1%
- residual activity (BMX (human)): 102%
- residual activity (CDK4 CCND3 (human)): 109%
- residual activity (CDK5 CDK5R1 p25 (human)): 90.6%
- residual activity (CDK7 CCNH MNAT1 (human)): 99.3%
- residual activity (CSNK1D (human)): 100%
- residual activity (DCLK2 (human)): 99.1%
- residual activity (DDR2 (human)): 96.8%
- residual activity (DMPK (human)): 94.2%
- residual activity (EPHA7 (human)): 104%
- residual activity (EPHA8 (human)): 101%
- residual activity (FGFR1 (human)): 86.3%
- residual activity (FGFR3 (human)): 101%
- residual activity (GRK4 (human)): 99.6%
- residual activity (GSG2 (human)): 96.9%
- residual activity (HCK (human)): 96.4%
- residual activity (HIPK2 (human)): 110%
- residual activity (IKBKE (human)): 95.6%
- residual activity (INSRR (human)): 98.7%
- residual activity (MAPK12 (human)): 93.6%
- residual activity (MAPK13 (human)): 100%
- residual activity (MARK4 (human)): 105%
- residual activity (MST4 (human)): 94.4%
- residual activity (NEK7 (human)): 96%
- residual activity (PAK4 (human)): 105%
- residual activity (PKN2 (human)): 89.7%
- residual activity (PLK1 (human)): 91.1%
- residual activity (PRKCB1 (human)): 96.3%
- residual activity (PRKCZ (human)): 96%
- residual activity (RPS6KA5 KD2 (human)): 98.3%
- residual activity (RPS6KB2 (human)): 99.2%
- residual activity (SGK2 (human)): 99.6%
- residual activity (SRC (human)): 102%
- residual activity (STK11 (human)): 97.6%
- residual activity (STK17A (human)): 96.9%
- residual activity (TAOK1 (human)): 84.2%
- residual activity (TGFBR2 (human)): 110%
- residual activity (WEE1 (human)): 86.2%
- residual activity (WNK2 (human)): 96.7%
- residual activity (YES1 (human)): 112%
- residual activity (ZAP70 (human)): 93.2%

Source: the kinase profiling compilation of Christmann-Franck et al. (2016)
